Test results: article PMC8596843, “Platinum Cyclooctadiene Complexes with Activity against Gram‐positive Bacteria” (Chemmedchem, 2021)
Like-named read-outs stand apart in the source and are kept apart here.

What was measured:
[1] = tested on: Staphylococcus aureus ATCC 43300 (MRSA); assay: microbe, parasite or virus in culture; format: cell-based; settings: for MIC Sa: CO‐ADD screening
Description: (§1) All compounds submitted to CO‐ADD are initially screened against five bacterial strains (Staphylococcus aureus (MRSA), E. coli, Klebsiella pneumoniae, Pseudomonas aeruginosa, Acinetobacter baumannii) and two fungal strains (Candida albicans, Cryptococcus neoformans) at a single concentration (32 μg/mL or 20 μM) performed as a high‐throughput primary screening.[[11], [17a]] Any compounds that show significant growth inhibition against any of the tested strains at this step are then evaluated in a dose‐response assay against these same strains. […]
(§2) Smiles: C1C=CCCC(=CC1)C1=CCCC=CCC1.C[Pt]C.C[Pt]C […]
(§3) ATCC strains were sourced from the American Type Culture Collection and NRS strains from NARSA (Network on Antimicrobial Resistance in Staphylococcus aureus) via BEI Resources (www.beiresources.org), with clinical MSSA and MRSA isolates from Prof Graeme Nimmo, Queensland […]
(§4) Health Central Pathology. […]
(§5) Antibacterial minimum inhibitory concentration (MIC) assay
(§6) Compound Assay Plate Preparation: Compounds were dissolved in DMSO at 10mM (CO-ADD screening) or 4 mM (follow up screening) and were plated in a 2-fold dose response from 20 to 0.156 µM or 200 to 0.006 µM respectively, with a maximum of 0.5% or 1% DMSO, final in the assay […]
(§7) plated in a 2-fold dose response from 200 to 0.006 µM, with a maximum of 1 % DMSO, final in the assay concentration. (in-house screening)
(§8) For all the bacterial assays, each strain was cultured in Cation-adjusted Mueller Hinton broth (CAMHB; Bacto Laboratories 212322) at 37 °C overnight. A sample of each culture was then diluted 40-fold in fresh CAMHB and incubated at 37 °C for 1.5–3 h. The resultant mid-log phase cultures were diluted with CAMHB (CFU mL−1 measured by OD600), then added to each well of the compound-containing plates (384-well non-binding surface (NBS) plates; Corning CLS3640), giving a cell density of 5 × 10^5 CFU mL−1 and a total volume of 50 μL. Plates were covered and incubated at 37 °C for 18 h without shaking. Inhibition of bacterial growth was determined measuring absorbance at 600 nm (OD600), using media only as negative control and bacteria without inhibitors as positive control. MIC values were determined as the lowest concentration at which the growth was inhibited at ≥80%. Colistin sulfate (Sigma C4461) and vancomycin HCl (Sigma 861987) were used as internal controls on each plate for Gram-negative and Gram-positive bacteria, respectively. […]

[2] = tested on: Acinetobacter baumannii ATCC 19606; assay: Antibacterial MIC assay; format: cell-based; settings: CO‐ADD screening
Description: as §1, §2, §3, §4, §5, §6, §7, §8

[3] = tested on: Escherichia coli ATCC 25922; assay: Antibacterial MIC assay; format: cell-based; settings: CO‐ADD screening
Description: as §1, §2, §3, §4, §5, §6, §7, §8

[4] = tested on: Pseudomonas aeruginosa ATCC 27853; assay: Antibacterial MIC assay; format: cell-based; settings: CO‐ADD screening
Description: as §1, §2, §3, §4, §5, §6, §7, §8

[5] = tested on: Klebsiella pneumoniae ATCC 700603 (ESBL SHV‐18)
Description: as §1, §2, §3, §4, §5, §6, §7, §8

[6] = tested on: Candida albicans ATCC 90028; assay: Antifungal MIC (CO-ADD screening); format: cell-based
Description: (§9) InChIKey: PHIWIZAHOBWKFJ-HPCBIOCFSA-N
(§10) Health Central Pathology. Candida albicans (ATCC 90028, NCCLS 11), Cryptococcus neoformans
as §5
(§11) concentration. (in-house screening)
(§12) Bacto Laboratories 212322) at 37 °C overnight.

[7] = tested on: Cryptococcus neoformans H99 ATCC 208821; assay: Antifungal MIC (CO-ADD screening); format: cell-based
Description: as §9, §10, §5, §11, §12

[8] = tested on: HEK-293 ATCC CRL-1573 human embryonic kidney cells; format: cell-based
Description: As part of the CO‐ADD screening, all compounds that show any activity against a microbial strain are evaluated for their cytotoxicity against human embryonic kidney cells (HEK‐293) and for haemolysis against human red blood cells. None of the compounds tested for cytotoxicity (Pt1‐9 and Pd1) caused any significant cell death up to concentrations of 100 μM. […] We have also observed higher IC50 values for the methylated complexes Pt3 and Pt4 against HeLa cells in previous work.[16] […]
(§13) inhibitors as positive control.
(§14) Tamoxifen (Sigma T5648) was used
(§15) as internal control on each plate.
in a Neubauer haemocytometer. […]

human red blood cells = assay: Haemolysis assay; format: cell-based; settings: for Haemolysis HC10: concentration inducing 10 % haemolysis; for Haemolysis HC50: concentration inducing 50 % haemolysis
Description: As part of the CO‐ADD screening, all compounds that show any activity against a microbial strain are evaluated for their cytotoxicity against human embryonic kidney cells (HEK‐293) and for haemolysis against human red blood cells. None of the compounds tested for cytotoxicity (Pt1‐9 and Pd1) caused any significant cell death up to concentrations of 100 μM. […] We have also observed higher IC50 values for the methylated complexes Pt3 and Pt4 against HeLa cells in previous work.[16]
(§16) The resultant mid-log phase cultures were diluted
(§17) Gram-negative and Gram-positive bacteria, respectively.
(§18) final concentration range of 0.8 – 100 µM.
as §13, §14, §15
in a Neubauer haemocytometer.
incubated for 1 h at 37 °C, without shaking.
HC10 and HC50 (concentration at which 10%
for top, bottom and slope using Prism 8. […]

[9] = tested on: Staphylococcus aureus ATCC 25923, MSSA; assay: Antibacterial MIC assay, Gram-positive panel; format: cell-based; settings: Table S1 panel; n=4
Text: (§19) Bis(dimethyl-η4)-((1Z,1'E,5Z,5'E)-(1,1'-bi(cyclooctadiene))diplatinum(II) (Pt14) Smiles: C1C=CCCC(=CC1)C1=CCCC=CCC1.C[Pt]C.C[Pt]C
as §9
(§20) Link to selected data that was repeated to approve the identity of the compounds: https://dx.doi.org/10.14272/PHIWIZAHOBWKFJ-HPCBIOCFSA-N.1
as §3, §4, §5, §6, §7, §8

[10] = tested on: Staphylococcus aureus VRS 1, VRSA (VanA); assay: Antibacterial MIC assay, Gram-positive panel; format: cell-based; settings: Table S1 panel; n=4
Text: as §19, §9, §20, §3, §4, §5, §6, §7, §8

[11] = tested on: Enterococcus faecalis ATCC 29212, control strain; assay: Antibacterial MIC assay, Gram-positive panel; format: cell-based; settings: Table S1 panel; n=4
Description: as §2, §3, §4, §5, §6, §7, §8

[12] = tested on: Enterococcus faecalis Clinical Isolate, VRE (VanB); assay: Antibacterial MIC assay, Gram-positive panel; format: cell-based; settings: Table S1 panel; n=4
Description: as §2, §3, §4, §5, §6, §7, §8

[13] = tested on: Enterococcus faecium ATCC 35667, type strain; assay: Antibacterial MIC assay, Gram-positive panel; format: cell-based; settings: Table S1 panel; n=4
Description: as §2, §3, §4, §5, §6, §7, §8

[14] = tested on: Enterococcus faecium Clinical Isolate, VRE (VanA); assay: Antibacterial MIC assay, Gram-positive panel; format: cell-based; settings: Table S1 panel; n=4
Description: as §2, §3, §4, §5, §6, §7, §8

[15] = tested on: Staphylococcus epidermidis ATCC 14990, type strain; assay: Antibacterial MIC assay, Gram-positive panel; format: cell-based; settings: Table S1 panel; n=4
Description: as §2, §3, §4, §5, §6, §7, §8

[16] = tested on: Staphylococcus epidermidis NRS 60, VISE; assay: Antibacterial MIC assay, Gram-positive panel; format: cell-based; settings: Table S1 panel; n=4
Description: as §2, §3, §4, §5, §6, §7, §8

[17] = tested on: E. coli tolC (efflux pump deficient); assay: MIC against E. coli membrane mutants; format: cell-based, Escherichia coli
Description: as §5, §11, §12, §16, §17, §18
(§21) inhibitors as positive control. […]

[18] = tested on: B. subtilis ATCC 6051 type strain; assay: MIC in the presence of human serum (serum reversal); format: cell-based, Bacillus subtilis; settings: 10% serum
Text: (§22) To obtain some initial insight into the apparent disparity between in vitro and in vivo results, we repeated the MIC experiments against four selected Gram‐positive strains in the presence of 10 % or 50 % human serum (Table S3). Pt1 and Pt2 maintained some antibacterial activity against B. subtilis in the presence of 10 % serum, but a complete loss of activity was observed against MRSA and GISA (50 % serum), and VRE (10 % serum). […] Systemic administration is therefore unlikely to be a suitable administration route for this class of compounds unless an alternative formulation that can prevent serum binding (e. g. by lipid or nanoparticle encapsulation) can be found. […] Further in vivo studies should therefore focus on more suitable disease models. […]
as §5, §11, §12, §16, §17, §18, §21

[19] = tested on: S. aureus ATCC 43300 MRSA; assay: as above; format: cell-based, Staphylococcus aureus; settings: 50% serum
Text: as §22, §5, §11, §12, §16, §17, §18, §21

S. aureus NRS 17 GISA = assay: as above; format: cell-based, Staphylococcus aureus; settings: 50% serum
Text: as §22, §5, §11, §12, §16, §17, §18, §21

[20] = tested on: E. faecium ATCC 51559 MDR, VRE; assay: as above; format: cell-based, Enterococcus faecium; settings: 10% serum
Text: as §22, §5, §11, §12, §16, §17, §18, §21

[21] = tested on: Enterococcus faecium ATCC 51559, MDR, VRE (VanA); assay: Antibacterial MIC assay, Gram-positive panel; format: cell-based; settings: Table S1 panel; n=2
Description: as §2, §3, §4, §5, §6, §7, §8

[22] = tested on: Staphylococcus aureus NRS 17, GISA; assay: Antibacterial MIC assay, Gram-positive panel; format: cell-based; settings: Table S1 panel; n=2
Description: as §2, §3, §4, §5, §6, §7, §8

[23] = tested on: E. coli lpxC (non‐efficient lipid A production mutant); assay: MIC against E. coli membrane mutants; format: cell-based, Escherichia coli
Description: as §5, §11, §12, §16, §17, §18, §21

Row | Molecule | MIC Sa [1] [µM] | MIC Ab [2] [µM] | MIC Ec [3] [µM] | MIC Pa [4] [µM] | MIC Kp [5] [µM] | MIC Ca [6] [µM] | MIC Cn [7] [µM] | CC50 [8] [µM] | Haemolysis HC10 (human red blood cells) [µM] | Haemolysis HC50 (human red blood cells) [µM] | MIC E. coli TolC ([17]; Table S2) [µM] | MIC in the presence of human serum [18] [µM] | MIC in the presence of human serum [19] [µM] | MIC in the presence of human serum (S. aureus NRS 17 GISA) [µM] | MIC in the presence of human serum [20] [µM] | further results
1 | C1=CCCC=CCC1.[CH3][Pt][C](F)(C(F)(F)F)C(F)(F)F [Pt6] | 10 | >20 | >20 | >20 | >20 | 20 | 20 | > 100 | >100 | >100 | > 200 | > 200 | > 200 | > 200 | > 200 | MIC ([1]; Table S1 panel, n=2): 6.25 µM; MIC [9]: 100 µM; MIC [10]: 200 µM; MIC [11]: > 200 µM; MIC [12]: > 200 µM; MIC [13]: > 200 µM; MIC [14]: 200 µM; MIC [15]: 100 µM; MIC [16]: 200 µM
2 | CCC1=CCCC=CCC1.[CH3][Pt][C](F)(F)C(F)(F)C(F)(F)C(F)(F)C(F)(F)C(F)(F)C(F)(F)C(F)(F)F [Pt9] | >20 | >20 | >20 | >20 | >20 | >20 | 1.25 | > 100 | >100 | >100 | > 200 | > 200 | > 200 | > 200 | > 200 | MIC [21]: 100 µM; MIC [22]: 100 µM; MIC E. coli lpxC ([23]; Table S2): > 200 µM
3 | Colistin [reference compound] |  |  |  |  |  |  |  |  |  |  |  |  |  |  |  | MIC Ab ([2]; control antibiotic): 0.25 µg/mL; MIC Ec ([3]; control antibiotic): 0.125 µg/mL; MIC Pa ([4]; control antibiotic): 0.25 µg/mL; MIC Kp ([5]; CO‐ADD screening, control antibiotic): 0.25 µg/mL; MIC E. coli lpxC ([23]; Table S2, colistin control): 0.03 µg/mL; MIC E. coli TolC ([17]; Table S2, colistin control): 0.03 µg/mL
